Measured values from article PMC10796436, “Peptidyl nitroalkene inhibitors of main protease rationalized by computational and crystallographic investigations as antivirals against SARS-CoV-2” (Communications Chemistry, 2024).
Values joined by “and” are separate entries in the source; they are usually repeats but may differ in a detail not shown here. Equal values may be shown once. Read-outs that look alike come from different tables or passages of the source.

Tests used:
M^pro [1] = molecular target: T1, M^pro (Severe acute respiratory syndrome coronavirus 2, UniProt P0DTD1); test: Binding to M^pro by ITC; parameters: DP / DH: unit not given here
in vitro = conditions: human
[2] = logP determination by HPLC; assay type: physicochemical; conditions: HPLC retention time
Experimental: experimental logP was determined. After unsuccessful evaluation by a classical extraction method
for determination, an HPLC-based estimation of hydrophobicity by retention time was utilized.
Following a publication60, a set of 9 compounds was chosen for preparing a calibration curve of
hydrophobicity indices and logPs.
λ = 254 nm, n = 1). Calibration of hydrophobicity was performed with a mixture of thiourea (Merck
Fisher Scientific, A12727.AP), Indole (Sigma Aldrich, W259306), Butyrophenone (Merck
1 mg/mL each in 50:50 [50 mM NH4OAc buffer pH 7.2/ACN]60 (n = 1). Analysis was performed
was used for elution with a binary pump using [50 mM NH4OAc buffer pH 7.2/ACN] (1 mL/min):
For calculation of unknown logP with this method, the following equation is used:
Signals at 6 and >14 min are due to impurities from
column that are detected in all measurements and are therefore not taken into account.

Permeability, PAMPA = assay type: in vitro ADME; conditions: UV-quantified, 2–7 h
Experimental: Permeability. General principle after Lit.66 Incubation setup: donor (top) plate (Sigma Aldrich, MAIPNTR10), 5 µL artificial membrane (1 % (w/v) L-α-Phosphatidylcholin, Sigma Aldrich P3556, in n-dodecane, Sigma Aldrich 8205430100), acceptor (bottom) plate (Greiner, 655074).
Measurement setup – UV spectroscopy: UV-transparent measurement plate (Greiner UV-Star®, 655801), Tecan Spark® well plate reader, 200 µL sample volume, λ = 200–650 nm. Analysis was performed with AUC function in GraphPad Prism using the indicated wavelength range.
Sigma D5652; pH 7.4 or TRIS 50 mM pH 7.4) aqueous solution with varying final contents of ACN or DMSO as indicated. (“donor solution”). Similarly prepared solutions (buffer + solvent) were used as “acceptor solutions”. 150 µL of donor solution was applied onto the artificial membrane which was applied first to the donor plate. This was sealed (Greiner, 676070, Viewseal sealer). 400 µL of acceptor solution was applied to the acceptor plate. […] After this time, acceptor solution was analyzed with UV spectroscopy. Reference solutions were prepared by simply mixing the indicated volumes of donor and acceptor solutions at the start of the incubation period and analyzed later with the acceptor solutions. […]
After the incubation period, the reference solution was analyzed by LCMS as described under […]
No permeation can be observed in any of the UV-quantified experiments. […]

bovine trypsin = molecular target: T2, bovine trypsin (Bos taurus, UniProt P00760); assay type: biochemical; conditions: 20 μM
T2 construct: purchased Sigma-Aldrich
T2 sequence (P00760 24-246): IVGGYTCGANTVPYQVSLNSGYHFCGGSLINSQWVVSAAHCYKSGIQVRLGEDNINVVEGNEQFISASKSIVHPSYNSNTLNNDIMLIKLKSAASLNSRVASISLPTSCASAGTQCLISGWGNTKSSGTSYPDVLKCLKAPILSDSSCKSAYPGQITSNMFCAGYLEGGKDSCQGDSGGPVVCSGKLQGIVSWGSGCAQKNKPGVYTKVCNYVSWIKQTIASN

M^pro [3] = molecular target: T1, M^pro; assay type: biochemical; conditions: for Fluorescence reading (progress curve): triplicate wells
Experimental: Buffer: 20 mM Tris, 0.1 mM EDTA, 1 mM DTT, 200 mM NaCl pH = 7.5. For the dilution assay Nirmatrelvir[21] was used as a reversible control and LM188[54] as an irreversible control (Fig. 10).
The incubation was done at RT for 30 min in assay buffer. DMSO was used as a control. After incubation the Enzyme/Inhibitor (or DMSO) mixtures were diluted 100-fold in assay buffer.
The preincubation was done in assay buffer (20 mM Tris, 0.1 mM EDTA, 1 mM DTT, 200 mM NaCl, pH = 7.5), at RT for 30 min. After incubation the mixtures were diluted […]
proteolytic activity of the enzyme was measured as described for the enzymatic assays using the […]
activity was measured over 1 h.
Inhibition assay58. Trypsin: Enzyme: bovine trypsin purchased from Sigma-Aldrich (St. Louis, […]
Substrate: Cbz-FR-AMC purchased from Bachem (Bubendorf, Switzerland), [Substrate]: 40 µM […]
The activity against bovine trypsin was tested at 20 µM inhibitor concentration. […]

M^pro [4] = molecular target: T1, M^pro; test: Binding to M^pro by ultracentrifugation (sedimentation method)

SMILES: CC(C)C[C@H](NC(=O)OCc1ccccc1)C(=O)N[C@H](/C=C/[N+](=O)[O-])C[C@@H]1CCNC1=O [FGA147]
- Kd (M^pro [1]; ITC, 25 °C): 2.86 ± 0.25 µM
- DH (M^pro [1]; Molar ratio 0.39455): -0.9026
- DH (M^pro [1]; Molar ratio 0.72682): -0.8799
- DH (M^pro [1]; Molar ratio 1.06223): -0.8369
- DP (M^pro [1]; Time 0.08333 min): -0.00244
- DP (M^pro [1]; Time 0.10000 min): -0.00119
- DP (M^pro [1]; Time 0.11667 min): -0.00067
- CC50 (in vitro): > 100 µM

SMILES: COc1cccc2[nH]c(C(=O)N[C@@H](CC(C)C)C(=O)N[C@H](/C=C/[N+](=O)[O-])C[C@@H]3CCNC3=O)cc12 [FGA146]
- logPexp [2]: 2.0
- permeation (Permeability, PAMPA): No permeation
- relative activity compared to the DMSO control (bovine trypsin): 112.5±16.9%
- Fluorescence reading (progress curve) (M^pro [3]; Time 180.071 s): 702 and 681 and 686
- Fluorescence reading (progress curve) (M^pro [3]; Time 210.081 s): 743 and 723 and 735
- Fluorescence reading (progress curve) (M^pro [3]; Time 240.095 s): 788 and 769 and 779
- Fluorescence reading (progress curve) (M^pro [3]; Time 270.113 s): 832 and 815 and 822
- Fluorescence reading (progress curve) (M^pro [3]; Time 300.118 s): 871 and 859 and 876
- Fluorescence reading (progress curve) (M^pro [3]; Time 330.126 s): 913 and 895 and 906
- Fluorescence reading (progress curve) (M^pro [3]; Time 360.134 s): 943 and 930 and 957
- Fluorescence reading (progress curve) (M^pro [3]; Time 390.141 s): 989 and 974 and 988
- Fluorescence reading (progress curve) (M^pro [3]; Time 420.149 s): 1026 and 1011 and 1031
- Fluorescence reading (progress curve) (M^pro [3]; Time 450.157 s): 1063 and 1040
- Fluorescence reading (progress curve) (M^pro [3]; Time 2881.2 s): 2210 and 2162 and 2202
- Fluorescence reading (progress curve) (M^pro [3]; Time 2911.21 s): 2205 and 2168 and 2199
- Fluorescence reading (progress curve) (M^pro [3]; Time 2941.22 s): 2214 and 2173 and 2206
- Fluorescence reading (progress curve) (M^pro [3]; Time 2971.24 s): 2207 and 2185 and 2213
- Fluorescence reading (progress curve) (M^pro [3]; Time 3001.25 s): 2222 and 2185 and 2232
- Fluorescence reading (progress curve) (M^pro [3]; Time 3031.26 s): 2246 and 2178 and 2225
- Fluorescence reading (progress curve) (M^pro [3]; Time 3061.27 s): 2233 and 2191 and 2237
- Fluorescence reading (progress curve) (M^pro [3]; Time 3091.28 s): 2243 and 2199 and 2235
- Fluorescence reading (progress curve) (M^pro [3]; Time 3121.29 s): 2244 and 2187 and 2224
- Fluorescence reading (progress curve) (M^pro [3]; Time 3151.3 s): 2247 and 2204 and 2241
- Fluorescence reading (progress curve) (M^pro [3]; Time 3181.31 s): 2224 and 2196 and 2245
- Fluorescence reading (progress curve) (M^pro [3]; Time 3211.32 s): 2250 and 2188 and 2275
- Fluorescence reading (progress curve) (M^pro [3]; Time 3241.33 s): 2234 and 2200
- Fluorescence reading (progress curve) (M^pro [3]; Time 3271.34 s): 2236 and 2195 and 2245
- Fluorescence reading (progress curve) (M^pro [3]; Time 3301.35 s): 2233 and 2201 and 2238
- Fluorescence reading (progress curve) (M^pro [3]; Time 3331.36 s): 2246 and 2198 and 2261
- Fluorescence reading (progress curve) (M^pro [3]; Time 3361.37 s): 2261 and 2203 and 2250
- Fluorescence reading (progress curve) (M^pro [3]; Time 3391.39 s): 2251 and 2199 and 2248
- Fluorescence reading (progress curve) (M^pro [3]; Time 3421.39 s): 2261 and 2206 and 2226
- Fluorescence reading (progress curve) (M^pro [3]; Time 3451.41 s): 2253 and 2215 and 2257
- Fluorescence reading (progress curve) (M^pro [3]; Time 3481.42 s): 2274 and 2215 and 2263
- Fluorescence reading (progress curve) (M^pro [3]; Time 3511.43 s): 2266 and 2207 and 2242
- Fluorescence reading (progress curve) (M^pro [3]; Time 3541.44 s): 2263 and 2215 and 2260
- Fluorescence reading (progress curve) (M^pro [3]; Time 3571.45 s): 2254 and 2212 and 2248
- recovery of M^pro activity after 100-fold dilution (M^pro [3]; preincubation 30 min): seems to recover over time
- Fraction bound, Absorption (M^pro [4]; ligand concentration 0.1): 0.00706
- Fraction bound, Fluorescence (M^pro [4]; ligand concentration 0.1): 0.00606
- Fraction bound, Absorption (M^pro [4]; ligand concentration 0.5): 0.0199
- Fraction bound, Fluorescence (M^pro [4]; ligand concentration 0.5): 0.0299
- Fraction bound, Absorption (M^pro [4]; ligand concentration 1): 0.07275
- Fraction bound, Fluorescence (M^pro [4]; ligand concentration 1): 0.06275
- Fraction bound, Absorption (M^pro [4]; ligand concentration 5): 0.3362
- Fraction bound, Fluorescence (M^pro [4]; ligand concentration 5): 0.3162
- Fraction bound, Absorption (M^pro [4]; ligand concentration 10): 0.6468
- Fraction bound, Fluorescence (M^pro [4]; ligand concentration 10): 0.623
- Fraction bound, Absorption (M^pro [4]; ligand concentration 25): 0.9146
- Fraction bound, Fluorescence (M^pro [4]; ligand concentration 25): 0.8218
- Fraction bound, Absorption (M^pro [4]; ligand concentration 50): 0.9678
- Fraction bound, Fluorescence (M^pro [4]; ligand concentration 50): 0.9995
- Fraction bound, Absorption (M^pro [4]; ligand concentration 100): 1.004
- Fraction bound, Fluorescence (M^pro [4]; ligand concentration 100): 0.9916
- Kd (M^pro [4]; ultracentrifugation, 25 °C): 7.28 ± 0.58 µM
